From ChEMBL document CHEMBL1629583, “Establishment of in vitro susceptibility testing methodologies and comparative activities of piperacillin in combination with the penem {beta}-lactamase inhibitor BLI-489” (2009)
≈ marks a conversion by molar mass, not a printed value.

Tests used:
Type in all cases: functional
[1] = test system: Pseudomonas aeruginosa; experiment: Antimicrobial activity against Pseudomonas aeruginosa clinical isolate after 18 to 22 hrs by broth microdilution method
[2] = test system: Haemophilus influenzae; experiment: Antimicrobial activity against beta-lactamase-producing Haemophilus influenzae clinical isolate after 18 to 22 hrs by broth microdilution method
[3] = test system: Moraxella catarrhalis; experiment: Antimicrobial activity against Moraxella catarrhalis clinical isolate after 18 to 22 hrs by broth microdilution method
[4] = test system: Staphylococcus aureus; experiment: Antimicrobial activity against methicillin-resistant Staphylococcus aureus clinical isolate after 18 to 22 hrs by broth microdilution method
[5] = test system: Staphylococcus aureus; experiment: Antimicrobial activity against methicillin-susceptible Staphylococcus aureus clinical isolate after 18 to 22 hrs by broth microdilution method
[6] = test system: Staphylococcus epidermidis; experiment: Antimicrobial activity against methicillin-resistant Staphylococcus epidermidis clinical isolate after 18 to 22 hrs by broth microdilution method
[7] = test system: Staphylococcus epidermidis; experiment: Antimicrobial activity against methicillin-susceptible Staphylococcus epidermidis clinical isolate after 18 to 22 hrs by broth microdilution method
[8] = test system: Enterococcus faecalis; experiment: Antimicrobial activity against Enterococcus faecalis clinical isolate after 18 to 22 hrs by broth microdilution method
[9] = test system: Enterococcus faecium; experiment: Antimicrobial activity against Enterococcus faecium clinical isolate after 18 to 22 hrs by broth microdilution method
[10] = test system: Enterococcus faecalis; experiment: Antimicrobial activity against vancomycin-resistant Enterococcus faecalis clinical isolate after 18 to 22 hrs by broth microdilution method
[11] = test system: Enterococcus faecium; experiment: Antimicrobial activity against vancomycin-resistant Enterococcus faecium clinical isolate after 18 to 22 hrs by broth microdilution method
[12] = test system: Enterococcus avium; experiment: Antimicrobial activity against Enterococcus avium clinical isolate after 18 to 22 hrs by broth microdilution method
[13] = test system: Streptococcus pneumoniae; experiment: Antimicrobial activity against penicillin-susceptible Streptococcus pneumoniae clinical isolate after 18 to 22 hrs by broth microdilution method
[14] = test system: Streptococcus pneumoniae; experiment: Antimicrobial activity against penicillin-intermediate Streptococcus pneumoniae clinical isolate after 18 to 22 hrs by broth microdilution method
[15] = test system: Streptococcus pneumoniae; experiment: Antimicrobial activity against penicillin-resistant Streptococcus pneumoniae clinical isolate after 18 to 22 hrs by broth microdilution method
[16] = test system: Streptococcus pyogenes; experiment: Antimicrobial activity against Streptococcus pyogenes clinical isolate after 18 to 22 hrs by broth microdilution method
[17] = test system: Enterococcus durans; experiment: Antimicrobial activity against Enterococcus durans clinical isolate after 18 to 22 hrs by broth microdilution method
[18] = test system: Enterococcus hirae; experiment: Antimicrobial activity against Enterococcus hirae clinical isolate after 18 to 22 hrs by broth microdilution method
[19] = test system: Streptococcus agalactiae; experiment: Antimicrobial activity against Streptococcus agalactiae clinical isolate after 18 to 22 hrs by broth microdilution method
[20] = test system: Citrobacter koseri; experiment: Antimicrobial activity against Citrobacter koseri clinical isolate after 18 to 22 hrs by broth microdilution method
[21] = test system: Enterobacter cloacae; experiment: Antimicrobial activity against Enterobacter cloacae clinical isolate after 18 to 22 hrs by broth microdilution method
[22] = test system: Escherichia coli; experiment: Antimicrobial activity against class A extended spectrum beta-lactamase- producing Escherichia coli clinical isolate after 18 to 22 hrs by broth microdilution method
[23] = test system: Escherichia coli; experiment: Antimicrobial activity against AmpC beta-lactamase-producing Escherichia coli clinical isolate after 18 to 22 hrs by broth microdilution method
[24] = test system: Citrobacter freundii; experiment: Antimicrobial activity against AmpC beta-lactamase-producing Citrobacter freundii clinical isolate after 18 to 22 hrs by broth microdilution method
[25] = test system: Klebsiella aerogenes; experiment: Antimicrobial activity against AmpC beta-lactamase-producing Enterobacter aerogenes clinical isolate after 18 to 22 hrs by broth microdilution method
[26] = test system: Klebsiella aerogenes; experiment: Antimicrobial activity against Enterobacter aerogenes clinical isolate after 18 to 22 hrs by broth microdilution method
[27] = test system: Citrobacter freundii; experiment: Antimicrobial activity against Citrobacter freundii clinical isolate after 18 to 22 hrs by broth microdilution method
[28] = test system: Klebsiella pneumoniae; experiment: Antimicrobial activity against Klebsiella pneumoniae clinical isolate after 18 to 22 hrs by broth microdilution method
[29] = test system: Klebsiella pneumoniae; experiment: Antimicrobial activity against class A extended spectrum beta-lactamase- producing Klebsiella pneumoniae clinical isolate after 18 to 22 hrs by broth microdilution method
[30] = test system: Klebsiella pneumoniae; experiment: Antimicrobial activity against class A extended spectrum beta-lactamase- and class D OXA- producing Klebsiella pneumoniae clinical isolate after 18 to 22 hrs by broth microdilution method
[31] = test system: Klebsiella pneumoniae; experiment: Antimicrobial activity against AmpC- producing Klebsiella pneumoniae clinical isolate after 18 to 22 hrs by broth microdilution method
[32] = test system: Klebsiella oxytoca; experiment: Antimicrobial activity against Klebsiella oxytoca clinical isolate after 18 to 22 hrs by broth microdilution method
[33] = test system: Serratia marcescens; experiment: Antimicrobial activity against Serratia marcescens clinical isolate after 18 to 22 hrs by broth microdilution method
[34] = test system: Morganella morganii; experiment: Antimicrobial activity against Morganella morganii clinical isolate after 18 to 22 hrs by broth microdilution method
[35] = test system: Proteus mirabilis; experiment: Antimicrobial activity against Proteus mirabilis clinical isolate after 18 to 22 hrs by broth microdilution method
[36] = test system: Providencia stuartii; experiment: Antimicrobial activity against Providencia stuartii clinical isolate after 18 to 22 hrs by broth microdilution method
[37] = test system: Acinetobacter baumannii; experiment: Antimicrobial activity against Acinetobacter baumannii clinical isolate after 18 to 22 hrs by broth microdilution method
[38] = test system: Acinetobacter haemolyticus; experiment: Antimicrobial activity against Acinetobacter haemolyticus clinical isolate after 18 to 22 hrs by broth microdilution method
[39] = test system: Acinetobacter johnsonii; experiment: Antimicrobial activity against Acinetobacter johnsonii clinical isolate after 18 to 22 hrs by broth microdilution method
[40] = test system: Acinetobacter junii; experiment: Antimicrobial activity against Acinetobacter junii clinical isolate after 18 to 22 hrs by broth microdilution method
[41] = test system: Acinetobacter lwoffii; experiment: Antimicrobial activity against Acinetobacter lwoffii clinical isolate after 18 to 22 hrs by broth microdilution method

SMILES: CCN1CCN(C(=O)N[C@@H](C(=O)N[C@@H]2C(=O)N3[C@@H]2SC(C)(C)[C@@H]3C(=O)O)c2ccccc2)C(=O)C1=O [PIPERACILLIN]
- MIC50 [1]: 16 µg/mL (≈ 30.9 µM)
- MIC90 [1]: > 128 µg/mL
- MIC50 [2]: 8 µg/mL (≈ 15.5 µM)
- MIC90 [2]: 32 µg/mL (≈ 61.8 µM)
- MIC50 [3]: 0.25 µg/mL (≈ 0.483 µM)
- MIC90 [3]: 8 µg/mL (≈ 15.5 µM)
- MIC50 [4]: > 128 µg/mL
- MIC50 [5]: 64 µg/mL (≈ 124 µM)
- MIC90 [5]: > 128 µg/mL
- MIC50 [6]: 8 µg/mL (≈ 15.5 µM)
- MIC90 [6]: 64 µg/mL (≈ 124 µM)
- MIC50 [7]: 2 µg/mL (≈ 3.86 µM)
- MIC90 [7]: 8 µg/mL (≈ 15.5 µM)
- MIC [8]: 2 µg/mL (≈ 3.86 µM)
- MIC50 [8]: 2 µg/mL (≈ 3.86 µM)
- MIC90 [8]: 4 µg/mL (≈ 7.73 µM)
- MIC50 [9]: 32 µg/mL (≈ 61.8 µM)
- MIC90 [9]: > 128 µg/mL
- MIC50 [10]: 2 µg/mL (≈ 3.86 µM)
- MIC90 [10]: > 128 µg/mL
- MIC [11]: > 128 µg/mL
- MIC50 [11]: > 128 µg/mL
- MIC50 [12]: 16 µg/mL (≈ 30.9 µM)
- MIC90 [12]: 64 µg/mL (≈ 124 µM)
- MIC50 [13]: 0.015 µg/mL (≈ 0.029 µM)
- MIC90 [13]: 0.03 µg/mL (≈ 0.058 µM)
- MIC50 [14]: 0.25 µg/mL (≈ 0.483 µM)
- MIC90 [14]: 1 µg/mL (≈ 1.93 µM)
- MIC50 [15]: 2 µg/mL (≈ 3.86 µM)
- MIC90 [15]: 4 µg/mL (≈ 7.73 µM)
- MIC50 [16]: 0.03 µg/mL (≈ 0.058 µM)
- MIC90 [16]: 0.06 µg/mL (≈ 0.116 µM)
- MIC50 [17]: 4 µg/mL (≈ 7.73 µM)
- MIC90 [17]: 16 µg/mL (≈ 30.9 µM)
- MIC50 [18]: 4 µg/mL (≈ 7.73 µM)
- MIC90 [18]: 16 µg/mL (≈ 30.9 µM)
- MIC50 [19]: 0.12 µg/mL (≈ 0.232 µM)
- MIC90 [19]: 0.25 µg/mL (≈ 0.483 µM)
- MIC50 [20]: 32 µg/mL (≈ 61.8 µM)
- MIC90 [20]: > 128 µg/mL
- MIC50 [21]: 4 µg/mL (≈ 7.73 µM)
- MIC90 [21]: > 128 µg/mL
- MIC [22]: > 128 µg/mL
- MIC50 [22]: > 128 µg/mL
- MIC90 [22]: > 128 µg/mL
- MIC50 [23]: > 128 µg/mL
- MIC90 [23]: > 128 µg/mL
- MIC50 [24]: > 128 µg/mL
- MIC90 [24]: > 128 µg/mL
- MIC50 [25]: > 128 µg/mL
- MIC90 [25]: > 128 µg/mL
- MIC50 [26]: 4 µg/mL (≈ 7.73 µM)
- MIC90 [26]: 128 µg/mL (≈ 247 µM)
- MIC50 [27]: 4 µg/mL (≈ 7.73 µM)
- MIC90 [27]: > 128 µg/mL
- MIC50 [28]: 8 µg/mL (≈ 15.5 µM)
- MIC90 [28]: 128 µg/mL (≈ 247 µM)
- MIC [29]: > 128 µg/mL
- MIC50 [29]: > 128 µg/mL
- MIC90 [29]: > 128 µg/mL
- MIC50 [30]: > 128 µg/mL
- MIC90 [30]: > 128 µg/mL
- MIC50 [31]: > 128 µg/mL
- MIC90 [31]: > 128 µg/mL
- MIC50 [32]: 8 µg/mL (≈ 15.5 µM)
- MIC90 [32]: 64 µg/mL (≈ 124 µM)
- MIC50 [33]: 4 µg/mL (≈ 7.73 µM)
- MIC90 [33]: > 128 µg/mL
- MIC50 [34]: 8 µg/mL (≈ 15.5 µM)
- MIC90 [34]: > 128 µg/mL
- MIC50 [35]: > 128 µg/mL
- MIC90 [35]: > 128 µg/mL
- MIC50 [36]: 2 µg/mL (≈ 3.86 µM)
- MIC50 [37]: > 128 µg/mL
- MIC90 [37]: > 128 µg/mL
- MIC50 [38]: 4 µg/mL (≈ 7.73 µM)
- MIC90 [38]: 128 µg/mL (≈ 247 µM)
- MIC50 [39]: 4 µg/mL (≈ 7.73 µM)
- MIC90 [39]: 128 µg/mL (≈ 247 µM)
- MIC50 [40]: 4 µg/mL (≈ 7.73 µM)
- MIC90 [40]: 128 µg/mL (≈ 247 µM)
- MIC50 [41]: 4 µg/mL (≈ 7.73 µM)
- MIC90 [41]: 128 µg/mL (≈ 247 µM)
